The nature of this data set: Plasma pharmacokinetics and urinary elimination after single oral and intravenous administration. It is filed as in vivo, FVB mice. The following applies: for urinary excretion, range over oral and intravenous route: 24 h urine, p.o. 60 mg/Kg to i.v. 30 mg/Kg; for clearance: read-out: Clp (plasma clearance) (converted); for Vd: read-out: Vd (volume of distribution); for bioavailability: oral, 60 mg/Kg, read-out: F % (bioavailability); for time up to which detectable in plasma: concentration close to the LLOQ (5 ng/mL). How it is done:
Mice were treated with ZST316 and ZST152 using a dose of 60 mg/Kg (oral gavage) and 30 mg/Kg (intravenous bolus). For pharmacokinetic sampling, blood was collected at 15 and 30 min, and 1, 3, 8, and 24 h post dose. Three mice were analyzed per each time point. After the animals were anesthetized with isoflurane, the blood was drained from the retro-orbital plexus into heparinized tubes, and then centrifuged for 10 min at 4000× g at 4 °C to separate plasma. A 24-h urine fraction was collected in three mice for each drug and route of administration. Plasma and urine samples were stored at −20 °C until analysis by HPLC-MS/MS.
In the preliminary phase of the method set up, we tried different solvents, 2-propanol, methanol (CH3OH), and acetonitrile (CH3CN) at different pH conditions, quickly obtaining a satisfactory recovery with CH3OH: 0.1% formic acid (HCOOH). Briefly, to assay ZST316, 10 µL of IS (ZST152 WS: 500 ng/mL) were added to 100 µL of plasma study samples, standards, or QCs in a polypropylene tube. The sample was then added with 10 µL of ammonium formate (NH4HCO2) 50 mM, mixed by vortex and added with 400 µL CH3OH: 0.1% HCOOH, vortex mixed again for 30 s and centrifuged at 13,200 rpm for 10 min at 4 °C. A volume of 450 µL of the supernatant was transferred to a new polypropylene tube, dried under nitrogen flow, and reconstituted with 100 µL of MP A:B (1:1, v/v). Finally, the mixed samples were centrifuged at 13,200 rpm for 10 min at 4 °C and the supernatant was transferred into glass vials for HPLC-MS/ MS analysis. Plasma samples containing drug concentrations above the highest standard point of the calibration curve were reanalyzed following dilution with the control matrix.
To assay ZST316, 5 µL of IS (ZST152 WS: 100 µg/mL) were added to 50 µL of urine samples, standards, or QCs in a polypropylene tube. After vortex mixing, 490 µL of MP A:B (1:1; v/v) were added to 10 µL of each sample to obtain a final dilution of 1:50. Samples were vortex mixed again for 30 s, centrifuged at 13,200 rpm for 10 min at 4 °C, and, finally, the supernatant was transferred into glass vials for HPLC-MS/ MS analysis. The urine samples with drug concentrations above the highest standard point of the calibration curve were reanalyzed following dilution with control matrix.
[…] chromatography was performed using a series 200 HPLC system (Perkin Elmer, Waltham, MA, USA) under gradient conditions with separation on a HILIC column, 3 µm, 100 A, 2.1 × 150 mm (Waters, Milford, MA, USA), coupled with a 3 µm, 3.9 × 5.0 mm guard column of the same material at the flow rate of 0.2 mL/min. Gradient features: 10% mobile phase (MP) A (NH4HCO2 10 mM, 10% CH3CN, 0.1% HCOOH) and 90% MP B (CH3CN, 0.1% HCOOH) as the initial constant condition; then to 90% MP A in 6 min and the constant condition for 1.5 min. Return to the start condition in 0.5 min and conditioning for 5.5 min. Total run time: 13.5 min. Mass spectrometric detection was performed using an API 4000 triple quadrupole mass spectrometer (SCIEX, Framingham, MA, USA) supplied with a Turbo Ion Spray source set at 350 °C and −4200 V, analyzing biological samples with electrospray ionization (ESI) operating in negative ion mode. Purified air was used as nebulizer gas (Gas 1) and heater gas (Gas 2) and N2 was used as curtain gas and collision activated dissociation gas. They were set to 40, 50, 20, and 4 instrument units (psi), respectively. The declustering potential (DP) was set at −119 V and the collision exit potential (CXP) at –10 V. All parameters of the source were defined by direct infusion of ZST316 and ZST152 1 µg/mL in mobile phase B. The final quantification was carried out in Selected Reaction Monitoring (SRM) with the following transitions: m/z 307.9 → 208.0 (collision energy of −29.5 eV) for ZST316 and m/z 271.9 → 170.9 (collision energy −24.7 eV) for ZST152 (Figure 2 and Figure 3). Data were processed with the software package Analyst 1.6.2 (AB SCIEX). […]

The mark [1] stands for this setting: FVB, mouse, plasma, iv, 30 mg/kg, i.v. 30 mg/Kg, single bolus.
Where [2] appears, read: FVB, mouse, plasma, iv, 30 mg/kg, i.v. 30 mg/Kg, read-out: AUC 0-8h.
[3] abbreviates: FVB, mouse, plasma, iv, 30 mg/kg, i.v. 30 mg/Kg, read-out: AUC 0-last.
Where [4] appears, read: FVB, mouse, plasma, iv, 30 mg/kg, i.v. 30 mg/Kg, read-out: Half-life (converted).
[5] abbreviates: FVB, mouse, plasma, iv, i.v. 30 mg/Kg.
The mark [6] stands for this setting: FVB, mouse, plasma, p.o. 60 mg/Kg vs i.v. 30 mg/Kg, dose normalized.
[7] abbreviates: FVB, mouse, plasma, po, 60 mg/kg, p.o. 60 mg/Kg, read-out: AUC 0-8h.
[8] abbreviates: FVB, mouse, plasma, po, 60 mg/kg, p.o. 60 mg/Kg, read-out: AUC 0-last.
The mark [9] stands for this setting: FVB, mouse, plasma, po, 60 mg/kg, p.o. 60 mg/Kg, read-out: Half-life (converted).
Where [10] appears, read: FVB, mouse, plasma, po, p.o. 60 mg/Kg.

“And” between values parts separate entries of the source, which are not always exact repeats. Equal entries are not always repeated. Where two headings read alike, the source gives them in different places.

The record followed here is publication PMC8840040, “Pharmacokinetic Characterization of the DDAH1 Inhibitors ZST316 and ZST152 in Mice Using a HPLC-MS/MS Method” (Molecules, 2022).

As usually defined, the Cmax is the maximum level reached in the sampled fluid or tissue. A word on the half-life: it is the time needed for the level to fall by half in the phase considered. By AUC(0-inf) is commonly meant the area under the concentration-time curve extrapolated to infinity. A high value points to more exposure. In general, Tmax refers to the time at which the peak concentration occurs. By bioavailability is commonly meant the share of a dose that reaches the circulation, judged against a reference dose that is usually intravenous.

Consider `COCCNC(=N)NCCC[C@H](N)c1noc(=O)[nH]1` [ZST152], for which the “urinary excretion, range over oral and intravenous route” value is 12.5%–22.2% and 12.5–22.2%. Besides, the concentration under setting [1] peaked (Cmax) at 24900 ng/mL. Moreover, the AUC(0-t) under setting [2] was found to be 9250 ng·h/mL. Further, the AUC(0-t) under setting [3] was determined as 9250 ng·h/mL. The half-life under setting [4] was 72 min. In addition, under setting [5], the AUC(0-inf) stood at 9260 ng·h/mL, the Tmax was 5 min, the clearance was 54 mL/min/kg and the Vd is 5.49 L/kg. In addition, the bioavailability under setting [6] was 33%. In addition, the AUC(0-t) under setting [7] is 6170 ng·h/mL. The AUC(0-t) under setting [8] was 6170 ng·h/mL. Moreover, the half-life under setting [9] was 51.6 min. Further, under setting [10], the AUC(0-inf) worked out at 6180 ng·h/mL and the Tmax is 15 min. For the same compound, where the note is “i.v. 30 mg/Kg”, the “24 h urinary excretion (% of dose)” value was 22.2 % of dose and the “time up to which detectable in plasma” value is recorded as 8 h. In addition, the half-life (i.v. 30 mg/Kg, 30 mg/kg) turned out to be 70.2 min. For the same compound, under “p.o. 60 mg/Kg”, the “24 h urinary excretion (% of dose)” value is given as 12.5 % of dose and the “time up to which measurable in plasma” value amounted to 8 h. Also, the “F % (bioavailability)” value (p.o. 60 mg/Kg vs i.v. 30 mg/Kg, dose normalized) came to 33.3%. Also, the “urinary excretion relative to that of ZST316” value (regardless of the route of administration) is “four- to fivefold”.

Turning to `COCCNC(=N)NCCC[C@H](N)C(=O)NS(C)(=O)=O` [ZST316], the “urinary excretion, range over oral and intravenous route” value was 2.3%–7.5% and 2.3–7.5%. The Cmax under setting [1] was found to be 67400 ng/mL. For the same compound, the AUC(0-t) under setting [2] is 21400 ng·h/mL. In addition, the AUC(0-t) under setting [3] was 21500 ng·h/mL. The half-life under setting [4] was 360 min. Besides, under setting [5], the AUC(0-inf) came to 21600 ng·h/mL, the Tmax was 5 min, the clearance was 23.2 mL/min/kg and the Vd was 12.2 L/kg. Moreover, the bioavailability under setting [6] is < 5%. The compound further registered a Cmax (FVB, mouse, plasma, po, 60 mg/kg, p.o. 60 mg/Kg, single dose) of 1020 ng/mL. Further, the AUC(0-t) under setting [7] was 1940 ng·h/mL. Further, under setting [8], the AUC(0-t) is 1940 ng·h/mL. In addition, under setting [9], the half-life is 97.8 min. Under setting [10], the AUC(0-inf) was found to be 2010 ng·h/mL and the Tmax was 30 min. The compound further yielded a concentration at 8 h (FVB, mouse, plasma, po, p.o. 60 mg/Kg, 8 h post dose) of 29 ng/mL. For the same compound, where the note is “i.v. 30 mg/Kg”, the “24 h urinary excretion (% of dose)” value is 7.5 % of dose, the “AUC after intravenous administration relative to that of ZST152” value was “approximately twice” and the “time up to which detectable in plasma” value turned out to be 24 h. Besides, under “p.o. 60 mg/Kg”, the “24 h urinary excretion (% of dose)” value is 2.3 % of dose and the “time up to which measurable in plasma” value was found to be 8 h.
